Experimental data reported in patent US10648917B2, “Luminescent compositions and applications thereof” (THE PENN STATE RESEARCH FOUNDATION, priority 2015, dated 2020).

Experiments:
[1] = commercial halide sensors; cited from earlier work
[2] = Fluorescence spectra, absorbance and quantum yield (spectrofluorometer, integration sphere); type: physicochemical
Method: Fluorescence spectra were recorded by a Horiba FluoroMax-4 spectrofluorometer. All polymer and small molecule samples were measured at a concentration of 2% w/w in 1,4-dioxane or DI water and a slit size of 1 nm by 1 nm unless otherwise specified. Quantum yields were also determined on the same spectrofluorometer by using a Quantum-φ integration sphere at the same concentration and slit size with the blank solvent as the reference. ^1H-NMR, ^13C-NMR were performed on a JNM ECS 300 spectrometer using DMSO-d6 or D2O as solvents. Attenuated total reflection Fourier transform infrared (ATR-FTIR) spectra were collected with a Bruker V70 spectrometer using BPLP films. A Shimadzu HPLC-MS system with a Phenomenex Kinetex 2.6u XB-C18 100 mm×2.9 mm column, a SPD M20A PDA detector and a RF-20AXS fluorescence detector (Ex. 360 nm and Em. 430 nm) was used to characterize the structures of fluorophores as well. The mobile phase was a gradient of DI water and acetonitrile with 0-6 min 2% acetonitrile, 6-12 min 2%-30% acetonitrile, and 12-15 min 2% acetonitrile. The flow rate was 0.15 ml/min. Electrospray ionization mass spectroscopy (ESI-MS) was performed with a positive voltage of 4.5 kV and negative mode voltage −4.0 kV and a CDL temperature of 200° C. The analysis of the degradation products of BPLPs were conducted by immersing BPLPs in 1M K2CO3 solution at 37° C. for 24 hours. After degradation, the solutions were neutralized by 1N HCl solution to pH 7 and characterized by HPLC-MS as described above.
(§1) Fluorescence spectra were recorded by a Horiba FluoroMax-4 spectrofluorometer. All samples were measured at a concentration corresponding to an optical density of 0.1 in water and a slit size of 1 nm by 1 nm unless specified. Quantum yields were also determined on same spectrofluorometer by using a Quantum-φ integration sphere at samples' maximum excitation wavelength and at an increment of 0.3 nm. Photostability studies were done by continuously exciting samples at their maximum excitation wavelength and monitoring at the maximum emission wavelength.
(§2) Fluorescence spectra were recorded on a Horiba FluoroMax-4 spectrofluorometer (Horiba Scientific, Edison N.J.). All polymer and samples were characterized at a concentration of 2 wt % in 1,4-dioxane and a slit size of 1 nm by 1 nm unless otherwise specified. The fluorescence properties of small molecule dyes were also measure in 2 wt % DI water solutions at same conditions as polymer solutions. BPLPs were also degraded in 1M K2CO3 solution at 37° C. for 24 hours and then neutralized with 1N HCl solution to pH7. The resulting degradation solutions were subject to further PL characterizations. Quantum yields were also determined on the same spectrofluorometer by using a Quantum-φ integration sphere (Horiba Scientific, Edison N.J.) at the same concentration and slit size with the blank solvent as the reference. Photostability of small molecules and polymers were determined by monitoring the emission intensity decay at their max. Excitation and emission wavelengths over 3 hours of continuous lumination in the spectrofluorometer.
(§3) Absorbance Spectra were recorded on Tecan Infinite M200 Pro UV-vis spectroscopy, and fluorescence spectra were recorded on Horiba FluoroMax-4 fluorospectroscopy at concentrations below 0.1 O.D. unless otherwise indicated. Quantum Yields were measured on the Quantum φ Integrating Sphere accessory to the FluoroMax-4, while lifetime measurements were determined through the Time-Correlation Single Photon Counting (TCSPC) accessory to the FluroMax-4. TCSPC was utilized in conjunction with NanoLED pulsed diode light source with peak excitation wavelength at 352 nm and at 10,000 counts peak preset. Emission was collected at the fluorescence λmax, unless otherwise indicated. For all pH-dependence experiments, sample pH was adjusted with sulfuric acid or sodium hydroxide. For all chloride-dependent quenching experiments, magnesium chloride hexahydrate (Sigma Aldrich) was used.

[3] = Photostability under continuous excitation for 3 hours; type: physicochemical; conditions: FIG. 19
Method: as §1, §2
Photostability of CFDs was characterized thereafter, since traditional organic dyes suffer from photobleaching. Various CFDs were tested under their maximum excitation and emission wavelengths for 3 hours, and the photoluminescence was normalized to the initial intensity.

[4] = Halide fluorescence quenching (Stern-Volmer); type: physicochemical; conditions: compared with CA-Cysteine
Method: as §3
When a fluorophore of [F] absorbs light energy, excitation raises a sub-population of [F] to the excited state, [F*], which then rapidly lose energy along radiative relaxation (kr) or non-radiative relaxation (knr) according to equation 7. If a quencher forms a complex with the excited fluorophore, an extra non-radiative component, kq, is added to equation 7 to account for the additional relaxation pathway that is a function of quencher concentration and its association constant.
[formula] Thus the quenching of fluorescence can be quantitatively analyzed by comparing the affected lifetimes. The Stern-Volmer (SV) relationship is used to determine kq, the bimolecular quenching rate constant for the diffusion coefficients of the fluorophore and quencher, by deriving a plot of τ0/τ versus [Q]:
[formula] Thus the linear slope of the SV plot, KSV, measures the efficiency of the quencher. Since sulfuric acid was used to study proton-induced quenching, the pH value was a better indicator of [H^+] due to incomplete dissociation of sulfuric acid at high concentrations. In the case of multiple quenchers, as will be discussed in this paper, equation 7 must include additional kq terms that result in modified form of equation 12 below:
[formula] If the two quenchers are act independently, the quencher of known quenching rate and concentration can be combined into the Y-intercept term in order to determine the quenching rate of the second, unknown quencher. […]
To translate halide quenching into quantitative sensing applications, a modified Stern-Volmer equation (Equation 14) was used to linearize the effects of two quenchers, protons and the halide being studied, on the fluorescence of CA-Cysteine. […]
Since the measured sample fluorescence is quenched by both protons and halides, the unquenched fluorescence, Io, was defined as the fluorescence of the neutral state CA-Cysteine in the absence of additional proton or halide quenchers. As mentioned above, the effects of protolytic equilibria stabilize around pH 2.2, where CA-Cysteine undergoes 99% conversion from the dianion state and is marked by constant fluorescence intensities (FIG. 13). […] Thus we chose the fluorescence intensity at pH 2.2 (in the absence of halides) as the unquenched reference signal, Io. IH,Cl in equation 23 is the sample fluorescence at the pH and halide concentration indicated. […]

CC[n+]1cccc2cc(OC)ccc21.[I-] [MEQ]
pH dependence of halide quenching [1]: quenched by halides independent of pH

CCOC(=O)C[n+]1cccc2cc(OC)ccc21.[Br-] [MQAE]
pH dependence of halide quenching [1]: quenched by halides independent of pH

COc1ccc2c(ccc[n+]2CCCS(=O)(=O)[O-])c1 [SPQ]
pH dependence of halide quenching [1]: quenched by halides independent of pH

O=C(O)c1cc2n(c(=O)c1)CCS2 [CA-Cysteamine]
Shifting (emission shifting with excitation wavelength) ([2]; CFD dyes): No | Φ (quantum yield) ([2]; Table III): 79.3% | λem (maximum emission wavelength) ([2]; Table III): 445 nm | λex (maximum excitation wavelength) ([2]; Table III): 365 nm | ϵ (extinction coefficiency) ([2]; Table III): 3880 M⁻¹ cm⁻¹ | Max. Em. Wavelength ([2]; representative CFDs, Table I): 445 nm | Max. Ex. Wavelength ([2]; representative CFDs, Table I): 365 nm | Quantum Yield ([2]; representative CFDs, Table I): 79.3% | photostability [3]: strong photostability | halide sensitivity [4]: increase sensitivity of all halides across all pH
